Source: patent US6448249B1, “Substituted 1,2,4-triazolo[3,4-A]phthalazine derivatives as GABAα5 ligands” (Merck Sharp & Dohme Ltd., priority 1998, dated 2002)

Assays:
[1] = target: T1, human GABAA receptors containing the α5 subunit (Homo sapiens, UniProt P18507+P31644); assay: [3H]-flumazenil (Ro 15-1788) displacement binding assay; settings: α5β3γ2 stably expressed in Ltk− cells; read-out: Ki value for displacement of [3H]Ro 15-1788 from the α5 subunit of the human GABAA receptor
T1 construct: expressed in transfected cells; host or cells: Ltk- cells (mouse fibroblasts), stably expressing
T1 sequence (P31644 32-462): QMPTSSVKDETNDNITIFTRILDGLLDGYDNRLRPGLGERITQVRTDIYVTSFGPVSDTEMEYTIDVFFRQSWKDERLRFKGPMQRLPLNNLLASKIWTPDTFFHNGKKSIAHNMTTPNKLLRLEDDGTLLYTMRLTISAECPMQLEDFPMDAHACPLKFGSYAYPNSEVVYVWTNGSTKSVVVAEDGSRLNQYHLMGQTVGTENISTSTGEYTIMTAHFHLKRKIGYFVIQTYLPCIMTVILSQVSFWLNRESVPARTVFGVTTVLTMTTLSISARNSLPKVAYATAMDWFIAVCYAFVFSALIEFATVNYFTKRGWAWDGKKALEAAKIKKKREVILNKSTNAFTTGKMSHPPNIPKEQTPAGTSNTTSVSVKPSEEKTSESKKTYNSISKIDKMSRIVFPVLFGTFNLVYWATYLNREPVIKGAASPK
T1 sequence (P28472 26-473 partner): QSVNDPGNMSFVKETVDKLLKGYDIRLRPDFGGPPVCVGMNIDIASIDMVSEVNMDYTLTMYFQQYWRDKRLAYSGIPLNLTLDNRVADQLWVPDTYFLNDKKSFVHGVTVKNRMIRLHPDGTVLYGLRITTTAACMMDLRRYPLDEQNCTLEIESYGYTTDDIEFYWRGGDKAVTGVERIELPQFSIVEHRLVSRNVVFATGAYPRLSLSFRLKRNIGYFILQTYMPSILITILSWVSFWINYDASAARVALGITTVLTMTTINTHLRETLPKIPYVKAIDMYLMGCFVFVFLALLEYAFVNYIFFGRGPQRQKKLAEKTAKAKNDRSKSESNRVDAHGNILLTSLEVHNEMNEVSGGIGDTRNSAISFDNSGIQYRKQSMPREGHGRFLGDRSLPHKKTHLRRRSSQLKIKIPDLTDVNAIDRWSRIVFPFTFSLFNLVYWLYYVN
T1 sequence (P18507 40-467 limits assumed): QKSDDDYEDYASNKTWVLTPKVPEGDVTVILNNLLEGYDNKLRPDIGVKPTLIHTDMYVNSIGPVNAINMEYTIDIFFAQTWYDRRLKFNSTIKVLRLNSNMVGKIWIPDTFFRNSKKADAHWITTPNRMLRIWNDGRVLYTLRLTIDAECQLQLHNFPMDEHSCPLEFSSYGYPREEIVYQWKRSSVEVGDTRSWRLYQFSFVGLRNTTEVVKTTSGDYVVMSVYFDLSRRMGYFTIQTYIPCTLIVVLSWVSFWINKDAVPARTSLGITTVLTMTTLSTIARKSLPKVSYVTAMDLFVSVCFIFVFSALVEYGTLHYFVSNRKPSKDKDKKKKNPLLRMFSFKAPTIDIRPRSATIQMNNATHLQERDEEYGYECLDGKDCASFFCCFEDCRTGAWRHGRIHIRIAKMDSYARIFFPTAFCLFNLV
Protocol: Phosphate buffered saline (PBS).
Assay buffer: 10 mM KH2PO4, 100 mM KCl, pH 7.4 at room temperature.
[^3H]-Flumazenil (18 nM for α1β3γ2 cells; 18 nM for α2β3γ2 cells; 10 nM for α3β3γ2 cells; 10 nM for α5β3γ2 cells) in assay buffer.
Flunitrazepam 100 μM in assay buffer.
Cells resuspended in assay buffer (1 tray to 10 ml).
Supernatant is removed from cells. PBS (approximately 20 ml) is added. The cells are scraped and placed in a 50 ml centrifuge tube. The procedure is repeated with a further 10 ml of PBS to ensure that most of the cells are removed. The cells are pelleted by centrifuging for 20 min at 3000 rpm in a benchtop centrifuge, and then frozen if desired. The pellets are resuspended in 10 ml of buffer per tray (25 cm×25 cm) of cells.
Can be carried out in deep 96-well plates or in tubes. Each tube contains:
50 μl of [^3H]-flumazenil (final concentration for α1β3γ2: 1.8 nM; for α2β3γ2: 1.8 nM; for α3β3γ2: […]; for α5β3γ2: 1.0nM). […]
Assays are incubated for 1 hour at […], then filtered using either a Tomtec or Brandel cell harvester onto GF/B filter followed by 3×3 ml washes with ice cold assay buffer. Filters are dried and counted by liquid scintillation counting. […] Binding parameters are determined by non-linear least squares regression analysis, from which the inhibition constant Ki can be calculated for the test compound.

[2] = test system: cognition; assay: rat water maze test (Morris); type: in vivo
From the text: Cognition enhancement can be shown by testing the compound in the Morris watermaze as reported by McNamara and Skelton, Psychobiology, 21:101-108. The functional efficacy at the various receptor subtypes can be calculated using the method disclosed in WO-A-9625948.

[3] = receptor occupancy at the minimum effective dose; type: in vivo; settings: Rattus norvegicus; at dose of 0.3 mg/kg

Question: Which melting point does the source give for `Cc1cc(-c2nnc3c4ccccc4c(OCc4cccc(Br)n4)nn23)no1` [Reference Example 2, 6-(6-Bromopyridin-2-yl)methyloxy-3-(5-methylisoxazol-3-yl)-1,2,4-triazolo[3,4-a]phthalazine] here?
Answer: The melting point was 247.5 to 249 °C.

Question: What does the source list for `Cc1cc(-c2nnc3c4ccccc4c(OCc4cn(C)nn4)nn23)no1` [compound of the present invention, 3-(5-methylisoxazol-3-yl)-6-(1-methyl-1,2,3-triazol-4-yl)methyloxy-1,2,4-triazolo[3,4-a]phthalazine]?
Answer: Ki [1]: ≤ 100 nM; cognition enhancement in the rat water maze test ([2]; demonstrated at 0.3 mg/kg and also at 3 mg/kg): enhance cognition; minimum effective dose for cognition enhancement ([2]; rat water maze): 0.3 mg/kg; receptor occupancy at 0.3 mg/kg [3]: 40%
